# Measured values from patent US8962630B2, “Pyrrolopyrimidine compounds and their uses” (Novartis AG, priority 2008, dated 2015).
# Where two headings read alike, the source gives them in different places.
# How the values were obtained:
# Type in all cases: biochemical
# CDK4/cyclin D1 = CDK4/cyclin D1 (Homo sapiens (Human), UniProt P11802); assay: CDK4/Cyclin D1 enzymatic activity assay (Lance TR-FRET)
# How it was run: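 IC50 from a TR-FRET endpoint read of phospho-pRb(S780) after EDTA quench. Reaction: 60 min, room temperature, 3 μM ATP, 175 nM pRb152 substrate, 0.3 nM Sf21-derived His6-CDK4/GST-cyclin D1, pH 7.5 HEPES with MgCl2/MnCl2, 2% DMSO, inhibitor 0.005-10 μM.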
# CDK2/cyclin A = CDK2/cyclin A (Homo sapiens (Human), UniProt P24941); assay: CDK2/Cyclin A enzymatic activity assay (IMAP-FP)
# CDK1/cyclin B = CDK1/cyclin B (Homo sapiens (Human), UniProt P06493); assay: CDK1/Cyclin B enzymatic activity assay (IMAP-FP)
# Text: A 384-well microtiter IMAP-FPT™ (Molecular Devices Trade Mark Technology) endpoint assay was used for CDK1/cyclin B kinase activity measurements. The same assay was used for IC50 determination of small molecule inhibitors.
# [1] = Table 2, 3 μM ATP, read-out: CDK4
# [2] = Table 2, 20 μM ATP, read-out: CDK1
# CDK1/cyclin B, sequence (P06493 whole entry, species assumed): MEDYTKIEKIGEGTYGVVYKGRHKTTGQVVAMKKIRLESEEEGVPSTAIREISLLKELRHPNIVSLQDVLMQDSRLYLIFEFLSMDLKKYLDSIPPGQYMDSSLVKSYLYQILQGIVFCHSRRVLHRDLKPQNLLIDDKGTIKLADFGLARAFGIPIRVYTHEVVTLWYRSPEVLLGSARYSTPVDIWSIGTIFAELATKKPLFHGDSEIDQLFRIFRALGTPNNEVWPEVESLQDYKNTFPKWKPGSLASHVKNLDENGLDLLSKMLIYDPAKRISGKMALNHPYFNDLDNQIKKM
# CDK1/cyclin B, sequence (P14635 whole entry partner, species assumed): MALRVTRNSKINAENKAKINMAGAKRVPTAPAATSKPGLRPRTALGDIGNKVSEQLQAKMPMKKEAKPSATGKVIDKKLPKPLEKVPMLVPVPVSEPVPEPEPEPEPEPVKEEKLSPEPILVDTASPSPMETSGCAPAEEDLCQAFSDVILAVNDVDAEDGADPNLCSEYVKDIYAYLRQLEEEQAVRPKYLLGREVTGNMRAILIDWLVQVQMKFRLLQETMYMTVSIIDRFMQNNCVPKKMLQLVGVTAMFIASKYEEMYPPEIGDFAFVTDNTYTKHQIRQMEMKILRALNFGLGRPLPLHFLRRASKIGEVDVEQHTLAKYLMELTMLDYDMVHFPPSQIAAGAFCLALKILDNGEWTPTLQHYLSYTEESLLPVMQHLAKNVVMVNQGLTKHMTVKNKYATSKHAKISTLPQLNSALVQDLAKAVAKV
# CDK4/cyclin D1, sequence (P11802 whole entry): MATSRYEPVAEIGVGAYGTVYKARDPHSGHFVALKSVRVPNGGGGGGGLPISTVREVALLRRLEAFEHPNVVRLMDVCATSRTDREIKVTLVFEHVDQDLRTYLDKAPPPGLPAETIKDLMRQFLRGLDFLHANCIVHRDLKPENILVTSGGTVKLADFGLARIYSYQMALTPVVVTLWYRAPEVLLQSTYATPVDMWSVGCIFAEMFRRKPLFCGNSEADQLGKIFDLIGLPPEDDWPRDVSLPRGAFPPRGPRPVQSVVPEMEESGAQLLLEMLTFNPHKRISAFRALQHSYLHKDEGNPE
# CDK4/cyclin D1, sequence (P24385 whole entry partner): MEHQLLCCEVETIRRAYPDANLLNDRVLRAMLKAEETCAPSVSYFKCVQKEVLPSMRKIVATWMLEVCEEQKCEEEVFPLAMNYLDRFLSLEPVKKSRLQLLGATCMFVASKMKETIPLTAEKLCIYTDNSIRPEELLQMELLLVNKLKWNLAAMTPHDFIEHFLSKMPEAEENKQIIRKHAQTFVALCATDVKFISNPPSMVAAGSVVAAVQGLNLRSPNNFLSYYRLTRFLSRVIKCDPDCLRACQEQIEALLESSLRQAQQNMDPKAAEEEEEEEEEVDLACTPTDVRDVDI
SMILES,IC50 (CDK4/cyclin D1; [1]),"IC50 (CDK2/cyclin A; Table 2, read-out: CDK2)",IC50 (CDK1/cyclin B; [2]),"IC50 (CDK4/cyclin D1; Table 4, read-out: IC50 (μM) CDK4)","IC50 (CDK2/cyclin A; Table 4, read-out: IC50 (μM) CDK2)","IC50 (CDK1/cyclin B; Table 4, read-out: IC50 (μM) CDK1)"
"CNC(=O)c1cc2cnc(Nc3ccc(N4CCNCC4)cn3)nc2n1C1CCCC1 [Example 58, 7-Cyclopentyl-2-(5-piperazin-1-yl-pyridin-2-ylamino)-7H-pyrrolo[2,3-d]pyrimidine-6-carboxylic acid methylamide]",0.01 to 0.1 µM,> 15 µM,> 15 µM,–,–,–
"CN(C)C(=O)c1cc2cnc(Nc3ccc(N(C)CCN)cn3)nc2n1C1CCCC1 [Example 59, 2-{5-[(2-Amino-ethyl)-methyl-amino]-pyridin-2-ylamino}-7-cyclopentyl-7H-pyrrolo[2,3-d]pyrimidine-6-carboxylic acid dimethylamide]",0.01 to 0.1 µM,> 15 µM,> 15 µM,–,–,–
"CN(C)C(=O)c1cc2cnc(Nc3ccc(CN4CCN(C)C(=O)C4)cn3)nc2n1C1CCCC1 [Example 60, 7-Cyclopentyl-2-[5-(4-methyl-3-oxo-piperazin-1-ylmethyl)-pyridin-2-ylamino]-7H-pyrrolo[2,3-d]pyrimidine-6-carboxylic acid dimethylamide]",0.1 to 1 µM,> 15 µM,> 15 µM,–,–,–
"C[C@H](CO)NCc1ccc(Nc2ncc3cc(C(=O)N(C)C)n(C4CCCC4)c3n2)nc1 [Example 66, 7-Cyclopentyl-2-{5-[((R)-2-hydroxy-1-methyl-ethylamino)-methyl]-pyridin-2 lamino}-7H-pyrrolo[2,3-d]pyrimidine-6-carboxylic acid dimethylamide]",0.01 to 0.1 µM,> 15 µM,> 15 µM,–,–,–
"CN(C)C(=O)c1cc2cnc(Nc3ccc(N4CCNCC4)nn3)nc2n1C1CCCC1 [Example 67, 7-Cyclopentyl-2-(6-piperazin-1-yl-pyridazin-3-ylamino)-7H-pyrrolo[2,3-d]pyrimidine-6-carboxylic acid dimethylamide]",0.01 to 0.1 µM,> 15 µM,> 15 µM,–,–,–
"CN(C)C(=O)c1cc2cnc(Nc3ccc(N4CCN(CC5CCCCC5)CC4)cn3)nc2n1C1CCCC1 [Example 69, 2-[5-(4-Cyclohexylmethyl-piperazin-1-yl)-pyridin-2-ylamino]-7-cyclopentyl-7H-pyrrolo[2,3-d]pyrimidine-6-carboxylic acid dimethylamide]",0.01 to 0.1 µM,> 15 µM,> 15 µM,–,–,–
"CC(C)N1CCN(c2ccc(Nc3ncc4cc(C(=O)N(C)C)n(C5CCCC5)c4n3)nn2)CC1 [Example 70, 7-Cyclopentyl-2-[6-(4-isopropyl-piperazin-1-yl)-pyridazin-3-ylamino]-7H-pyrrolo[2,3-d]pyrimidine-6-carboxylic acid dimethylamide]",0.01 to 0.1 µM,> 15 µM,> 15 µM,–,–,–
"CN(C)C(=O)c1cc2cnc(Nc3ccc(N4CCNC(C)(C)C4)cn3)nc2n1C1CCCC1 [Example 72, 7-Cyclopentyl-2-[5-(3,3-dimethyl-piperazin-1-yl)-pyridin-2-ylamino]-7H-pyrrolo[2,3-d]pyrimidine-6-carboxylic acid dimethylamide]",0.01 to 0.1 µM,> 15 µM,> 15 µM,–,–,–
"CN(C)C(=O)c1cc2cnc(Nc3ccc(N4CCN(C5CCCC5)CC4)cn3)nc2n1C1CCCC1 [Example 79, 7-Cyclopentyl-2-[5-(4-cyclopentyl-piperazin-1-yl)-pyridin-2-ylamino]-7H-pyrrolo[2,3-d]pyrimidine-6-carboxylic acid dimethylamide]",0.01 to 0.1 µM,> 15 µM,> 15 µM,–,–,–
"C[C@@H]1CN(c2ccc(Nc3ncc4cc(C(=O)N(C)C)n(C5CCCC5)c4n3)nc2)CCN1CCO [Example 81, 7-Cyclopentyl-2-{5-[(R)-4-(2-hydroxy-ethyl)-3-methyl-piperazin-1-yl]-pyridin-2-ylamino}-7H-pyrrolo[2,3-d]pyrimidine-6-carboxylic acid dimethylamide]",0.01 to 0.1 µM,> 15 µM,> 15 µM,–,–,–
"CN(C)C(=O)c1cc2cnc(Nc3ccc(N(C)CCO)cn3)nc2n1C1CCCC1 [Example 83, 7-Cyclopentyl-2-{5-[(2-hydroxy-ethyl)-methyl-amino]-pyridin-2-ylamino}-7H-pyrrolo[2,3-d]pyrimidine-6-carboxylic acid dimethylamide]",0.1 to 1 µM,> 15 µM,> 15 µM,–,–,–

# Continued, values first:
IC50 (CDK4/cyclin D1; [1]),"IC50 (CDK2/cyclin A; Table 2, read-out: CDK2)",IC50 (CDK1/cyclin B; [2]),"IC50 (CDK4/cyclin D1; Table 4, read-out: IC50 (μM) CDK4)","IC50 (CDK2/cyclin A; Table 4, read-out: IC50 (μM) CDK2)","IC50 (CDK1/cyclin B; Table 4, read-out: IC50 (μM) CDK1)",SMILES
0.01 to 0.1 µM,> 15 µM,> 15 µM,–,–,–,"C[C@@H](O)CN1CCN(c2ccc(Nc3ncc4cc(C(=O)N(C)C)n(C5CCCC5)c4n3)nc2)CC1 [Example 57, 7-Cyclopentyl-2-{5-[4-((R)-2-hydroxy-propyl)-piperazin-1-yl]-pyridin-2-ylamino}-7H-pyrrolo[2,3-d]pyrimidine-6-carboxylic acid dimethylamide]"
0.1 to 1 µM,> 15 µM,> 15 µM,–,–,–,"CC(=O)N1CCN(Cc2ccc(Nc3ncc4cc(C(=O)N(C)C)n(C5CCCC5)c4n3)nc2)CC1 [Example 61, 2-[5-(4-Acetyl-piperazin-1-ylmethyl)-pyridin-2-ylamino]-7-cyclopentyl-7H-pyrrolo[2,3-d]pyrimidine-6-carboxylic acid dimethylamide]"
0.01 to 0.1 µM,> 15 µM,> 15 µM,–,–,–,"CC(C)N1CCN(Cc2ccc(Nc3ncc4cc(C(=O)N(C)C)n(C5CCCC5)c4n3)nc2)CC1 [Example 62, 7-Cyclopentyl-2-[5-(4-isopropyl-piperazin-1-ylmethyl)-pyridin-2-ylamino]-7H-pyrrolo[2,3-d]pyrimidine-6-carboxylic acid dimethylamide]"
0.001 to 0.01 µM,> 15 µM,> 15 µM,0.008 µM,> 15 µM,> 15 µM,"CC(C)N1CCN(c2ccc(Nc3ncc4cc(C(=O)N(C)C)n(C5CCCC5)c4n3)nc2)CC1 [Example 63, 7-Cyclopentyl-2-[5-(4-isopropyl-piperazin-1-yl)-pyridin-2-ylamino]-7H-pyrrolo[2,3-d]pyrimidine-6-carboxylic acid dimethylamide]"
0.01 to 0.1 µM,> 15 µM,> 15 µM,–,–,–,"CN(C)C(=O)c1cc2cnc(Nc3ccc(CN4CCN(C(=O)CN)CC4)cn3)nc2n1C1CCCC1 [Example 65, 2-{5-[4-(2-Amino-acetyl)-piperazin-1-ylmethyl]-pyridin-2-ylamino}-7-cyclopentyl-7H-pyrrolo[2,3-d]pyrimidine-6-carboxylic acid dimethylamide]"
0.001 to 0.01 µM,> 15 µM,> 15 µM,–,–,–,"CC(C)CCCN1CCN(c2ccc(Nc3ncc4cc(C(=O)N(C)C)n(C5CCCC5)c4n3)nc2)CC1 [Example 68, 7-Cyclopentyl-2-{5-[4-(4-methyl-pentyl)-piperazin-1-yl]-pyridin-2-ylamino}-7H-pyrrolo[2,3-d]pyrimidine-6-carboxylic acid dimethylamide]"
0.01 to 0.1 µM,> 15 µM,> 15 µM,–,–,–,"CN(C)C(=O)c1cc2cnc(Nc3ccc(N4CCN(CC(C)(C)O)CC4)cn3)nc2n1C1CCCC1 [Example 71, 7-Cyclopentyl-2-{5-[4-(2-hydroxy-2-methyl-propyl)-piperazin-1-yl]-pyridin-2-ylamino}-7H-pyrrolo[2,3-d]pyrimidine-6-carboxylic acid dimethylamide]"
0.01 to 0.1 µM,> 15 µM,> 15 µM,–,–,–,"C[C@@H]1CN(Cc2ccc(Nc3ncc4cc(C(=O)N(C)C)n(C5CCCC5)c4n3)nc2)C[C@H](C)N1 [Example 75, 7-Cyclopentyl-2-[5-((3S,5R)-3,5-dimethyl-piperazin-1-ylmethyl)-pyridin-2-ylamino]-7H-pyrrolo[2,3-d]pyrimidine-6-carboxylic acid dimethylamide]"
0.01 to 0.1 µM,> 15 µM,> 15 µM,–,–,–,"CN(C)C(=O)c1cc2cnc(Nc3ccc(CN4CCC(O)CC4)cn3)nc2n1C1CCCC1 [Example 76, 7-Cyclopentyl-2-[5-(4-hydroxy-piperidin-1-ylmethyl)-pyridin-2-ylamino]-7H-pyrrolo[2,3-d]pyrimidine-6-carboxylic acid dimethylamide]"
0.01 to 0.1 µM,> 15 µM,> 15 µM,–,–,–,"COCCN1CCN(Cc2ccc(Nc3ncc4cc(C(=O)N(C)C)n(C5CCCC5)c4n3)nc2)CC1 [Example 77, 7-Cyclopentyl-2-{5-[4-(2-methoxy-ethyl)-piperazin-1-ylmethyl]-pyridin-2-ylamino}-7H-pyrrolo[2,3-d]pyrimidine-6-carboxylic acid dimethylamide]"
0.001 to 0.01 µM,> 15 µM,> 15 µM,–,–,–,"CCN1CCN(c2ccc(Nc3ncc4cc(C(=O)N(C)C)n(C5CCCC5)c4n3)nc2)CC1 [Example 78, 7-Cyclopentyl-2-[5-(4-ethyl-piperazin-1-yl)-pyridin-2-ylamino]-7H-pyrrolo[2,3d]pyrimidine-6-carboxylic acid dimethylamide]"
0.01 to 0.1 µM,> 15 µM,> 15 µM,–,–,–,"CC(C)N1CCC(c2ccc(Nc3ncc4cc(C(=O)N(C)C)n(C5CCCC5)c4n3)nc2)CC1 [Example 80, 7-Cyclopentyl-2-(1′-isopropyl-1′,2′,3′,4′,5′,6′-hexahydro-[3,4′]bipyridinyl-6-ylamino)-7H-pyrrolo[2,3-d]pyrimidine-6-carboxylic acid dimethylamide]"
0.01 to 0.1 µM,> 15 µM,> 15 µM,–,–,–,"C[C@H]1CN(c2ccc(Nc3ncc4cc(C(=O)N(C)C)n(C5CCCC5)c4n3)nc2)CCN1CCO [Example 82, 7-Cyclopentyl-2-{5-[(S)-4-(2-hydroxy-ethyl)-3-methyl-piperazin-1-yl]-pyridin-2-ylamino}-7H-pyrrolo[2,3-d]pyrimidine-6-carboxylic acid dimethylamide]"
